Assay results as given in US10344019B2 (priority 2010, dated 2019).
pEC50: −log10 of the molar value. Like-named read-outs stand apart in the source and are kept apart here.

Legend:
Format in all cases: cell-based
[1] = test system: HCV 2a JFH-1 Rluc cells (dicistronic genotype 2a JFH-1 replicon, RLuc reporter); test: microbe, parasite or virus in culture; details: Hepatitis C virus, genotype 2a JFH-1 replicon, read-out: 2a JFH
In short: (§1)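 Replicons used: genotype 1b Con1, 1a H77, 2a JFH-1, and a 2a JFH-1 chimera with J6-strain NS5A (M31 present), all dicistronic.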

[2] = test system: HCV 3a RLuc cells (NS5A chimeric genotype 1b Con1 replicon with consensus genotype 3a NS5A gene); test: microbe, parasite or virus in culture; details: Hepatitis C virus
In short: (§2)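 Replicon cells stably carrying the listed RLuc-encoding dicistronic replicons were seeded and treated with DMSO serial dilutions of compound (10 mM stocks) diluted into culture medium. After 72 h, cells were lysed and Renilla luciferase activity measured. EC50 was derived by non-linear regression.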

[3] = test system: HCV 1b RLuc cells (dicistronic genotype 1b Con1 replicon, RLuc reporter); test: microbe, parasite or virus in culture; details: Hepatitis C virus, read-out: 1b (nM)
In short: as §1

[4] = test system: HCV 4a Rluc cells (NS5A chimeric genotype 1b Con1 replicon with genotype 4a NS5A gene); test: microbe, parasite or virus in culture; details: Hepatitis C virus, read-out: 4a
In short: as §2

[5] = test system: HCV 1a RLuc cells (dicistronic genotype 1a H77 replicon, RLuc reporter); test: microbe, parasite or virus in culture; details: Hepatitis C virus, read-out: 1a
In short: as §1

[6] = test system: HCV 2a Rluc cells (NS5A chimeric genotype 2a JFH-1 replicon with genotype 2a J6 strain NS5A gene, M31 present); test: HCV replicon reporter assay, genotype 2a J6 (M31 present); details: Hepatitis C virus, read-out: 2a J6
Description: Evaluation of cell-based anti-HCV activity: Antiviral potency (EC50) was determined using a Renilla luciferase (RLuc)-based HCV replicon reporter assay. To perform the assay for genotype 1 and 2a JFH-1, HCV 1b RLuc cells (harboring a dicistronic genotype 1b Con1 replicon that encodes a RLuc reporter), or HCV 1a RLuc cells (harboring a dicistronic genotype 1a H77 replicon that encodes a RLuc reporter), or HCV 2a JFH-1 Rluc cells (harboring a dicistronic genotype 2a JFH-1 replicon that encodes a RLuc reporter) were dispensed into 384-well plates. To perform the assay for genotype 2a (with M31 present) or 2b, HCV 2a Rluc or 2b Rluc cells (both with M31 present) harboring a dicistronic NS5A chimeric genotype 2a JFH-1 replicon that encodes a RLuc reporter and either genotype 2a J6 strain NS5A gene or genotype 2b MD2b-1 NS5A gene (based on Los Alamos HCV database isolates, both with M31 present) respectively, were dispensed into 384-well plates. To perform the assay for genotype 3 and 4, HCV 3a RLuc or 4a Rluc cells harboring a dicistronic NS5A chimeric genotype 1b Con1 replicon that encodes a RLuc reporter and either a consensus genotype 3a NS5A gene or genotype 4a NS5A gene (based on Los Alamos HCV database isolates) respectively, were dispensed into 384-well plates. Compounds were re-suspended in DMSO at a concentration of 10 mM and serially diluted in DMSO either manually or using an automated pipeting instrument. Serially diluted compounds were mixed with cell culture media and added to the seeded cells. […] 72 hours later, cells were lysed and Renilla luciferase activity quantified as recommended by the manufacturer (Promega-Madison, Wis.). Non-linear regression was performed to calculate EC50 values.

[7] = read-out: 3a, genotype 3a replicon
[8] = read-out: 3a, Table 2, genotype 3a NS5A chimeric replicon
[9] = 72 h, Table 2, genotype 1a H77 replicon, 72 hours

Compound | pEC50 [1] | pEC50 [2, 7] | EC50 [3] [nM] | pEC50 [4] | pEC50 ([5]; genotype 1a replicon) | pEC50 [6] | pEC50 ([1]; 72 h, Table 2, 72 hours) | pEC50 [2, 8] | EC50 ([3]; 72 h) [nM] | pEC50 [5, 9] | pEC50 ([1]; 72 h, Table 1, 72 hours) | pEC50 ([2]; read-out: 3a, Table 1, genotype 3a NS5A chimeric replicon) | pEC50 ([5]; 72 h, Table 1, genotype 1a H77 replicon, 72 hours)
COC(=O)N[C@H](C(=O)N1CCC[C@H]1c1ncc(-c2cc3c4c(c2)COc2cc(-c5cnc([C@@H]6CCCN6C(=O)[C@@H](NC(=O)OC)C(C)C)[nH]5)cc(c2-4)OC3)[nH]1)C(C)C [Example 319] | 9.00 to 12.00 | 9.00 to 12.00 | 0.021 | 9.00 to 12.00 | 9.00 to 12.00 | 9.00 to 12.00 | – | – | – | – | – | – | –
COC(=O)N[C@H](C(=O)N1CCC[C@H]1c1ncc(-c2cc3c4c(c2)OCc2cc(-c5[nH]c([C@@H]6CCCN6C(=O)[C@@H](NC(=O)OC)C(C)C)nc5Cl)cc(c2-4)OC3)[nH]1)C(C)C [Example 389] | 9.00 to 12.00 | 9.00 to 12.00 | 0.015 | 9.00 to 12.00 | 9.00 to 12.00 | 7.36 to 9.00 | – | – | – | – | – | – | –
COC(=O)N[C@H](C(=O)N1CCC[C@H]1c1ncc(-c2ccc3c(c2)COc2cc(-c4cnc([C@@H]5CCCN5C(=O)[C@@H](NC(=O)OC)C(C)C)[nH]4)cc(F)c2-3)[nH]1)C(C)C [Example 393] | 9.00 to 12.00 | 9.00 to 12.00 | 0.012 | 9.00 to 12.00 | 9.00 to 12.00 | < 7.36 | – | – | – | – | – | – | –
COC(=O)NC(C(=O)N1CCC[C@H]1c1ncc(-c2ccc(-c3ccc4c(ccc5nc([C@@H]6[C@H]7CC[C@H](C7)N6C(=O)[C@@H](NC(=O)OC)[C@@H](C)OC)[nH]c54)c3)cc2)[nH]1)C(C)C (stereo partly drawn) [Example 66] | – | – | – | 9.00 to 12.00 | – | < 7.36 | 9.00 to 12.00 | 9.00 to 12.00 | 0.022 | 9.00 to 12.00 | – | – | –
COC(=O)N[C@H](C(=O)N1[C@@H]2CC[C@@H](C2)[C@H]1c1ncc(-c2ccc(-c3ccc4c(ccc5nc([C@@H]6C[C@H]7C[C@H]7N6C(=O)[C@@H](NC(=O)OC)C(C)C)[nH]c54)c3)cc2)[nH]1)C(C)C [Example 98] | – | – | – | 9.00 to 12.00 | – | < 7.36 | 9.00 to 12.00 | 8.30 to 9.00 | 0.01 | 9.00 to 12.00 | – | – | –
COC(=O)N[C@H](C(=O)N1[C@@H]2CC[C@@H](C2)[C@H]1c1nc2ccc3cc(-c4ccc(-c5cnc([C@@H]6C[C@H]7C[C@H]7N6C(=O)[C@@H](NC(=O)OC)C6CCOCC6)[nH]5)c(F)c4)ccc3c2[nH]1)C(C)C [Example 392] | 9.00 to 12.00 | 8.30 to 9.00 | 0.022 | 9.00 to 12.00 | 9.00 to 12.00 | < 7.36 | – | – | – | – | – | – | –
COC(=O)N[C@H](C(=O)N1CCC[C@H]1c1nc2ccc3cc(-c4ccc(-c5cnc([C@@H]6CC7(CN6C(=O)[C@H](C(C)C)C(C)C(=O)OC)OCCO7)[nH]5)cc4)ccc3c2[nH]1)[C@@H](C)OC (stereo partly drawn) [Example 80] | – | – | – | 9.00 to 12.00 | – | < 7.36 | 9.00 to 12.00 | 9.00 to 12.00 | 0.072 | 9.00 to 12.00 | – | – | –
COC(=O)NC(C(=O)N1CCC[C@H]1c1ncc(-c2ccc(-c3ccc4c(ccc5nc([C@@H]6[C@H]7CC[C@H](C7)N6C(=O)[C@@H](NC(=O)OC)C(C)C)[nH]c54)c3)cc2)[nH]1)[C@@H](C)OC (stereo partly drawn) [Example 68] | – | – | – | 9.00 to 12.00 | – | 7.36 to 9.00 | 9.00 to 12.00 | 9.00 to 12.00 | 0.025 | 9.00 to 12.00 | – | – | –
COC(=O)N[C@H](C(=O)N1CCC[C@H]1c1ncc(-c2cc3c4c(c2)OCc2cc(-c5cnc([C@@H]6CCCN6C(=O)[C@@H](NC(=O)OC)C6CCOCC6)[nH]5)cc(c2-4)OC3)[nH]1)C(C)C [Example 25b] | – | – | – | 9.00 to 12.00 | – | 7.36 to 9.00 | – | – | 0.176 | – | 9.00 to 12.00 | 9.00 to 12.00 | 9.00 to 12.00
